What was measured:
DLK = target: T1, DLK (Homo sapiens, UniProt Q12852); assay: DLK biochemical assay (TR-FRET, MKK7 phosphorylation); conditions: DLK catalytic domain, MKK7 substrate, 60 μM ATP
T1 construct: 10 nM DLK, catalytic domain, Carna Biosiences; purchased Carna Biosciences ('Carna Biosiences' [sic])
T1 sequence (Q12852 125-366 limits assumed): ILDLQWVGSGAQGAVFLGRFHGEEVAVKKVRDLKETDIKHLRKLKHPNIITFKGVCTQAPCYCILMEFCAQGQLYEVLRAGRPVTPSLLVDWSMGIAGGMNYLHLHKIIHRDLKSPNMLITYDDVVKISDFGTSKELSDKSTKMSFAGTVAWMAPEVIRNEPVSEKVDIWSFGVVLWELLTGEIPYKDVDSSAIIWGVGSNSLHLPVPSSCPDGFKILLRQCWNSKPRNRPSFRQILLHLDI
In short: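 TR-FRET read-out (ratio of 665 nm acceptor to Eu donor channel) tracks MKK7 T275/S277 phosphorylation by DLK, using Eu-labelled anti-phospho-MKK7 and XL665-labelled anti-His on His-MKK7. Reactions were stopped and detected in pH 7.5 Tris buffer containing 100 mM EDTA, 100 mM NaCl, 200 mM KF and 0.01% Tween 20.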

LZK = target: T2, LZK (Homo sapiens, UniProt O43283); assay: LZK biochemical assay (TR-FRET, MKK7 phosphorylation); conditions: LZK catalytic domain, MKK7 substrate, 15 μM ATP
T2 construct: 10 nM LZK, catalytic domain, Carna Biosiences in assay buffer; purchased Carna Biosciences ('Carna Biosiences' [sic])
T2 sequence (O43283 168-409 limits assumed): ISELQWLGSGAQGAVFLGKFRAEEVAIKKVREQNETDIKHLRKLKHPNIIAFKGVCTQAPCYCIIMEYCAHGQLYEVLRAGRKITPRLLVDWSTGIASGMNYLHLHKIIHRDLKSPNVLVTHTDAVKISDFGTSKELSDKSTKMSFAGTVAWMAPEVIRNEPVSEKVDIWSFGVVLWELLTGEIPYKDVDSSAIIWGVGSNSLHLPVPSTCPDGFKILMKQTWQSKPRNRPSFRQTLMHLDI

SMILES	IC50 (DLK) [nM]	IC50 (LZK) [nM]
CC[C@H](C)NC(=O)c1cc(-c2cnn(C(c3ccc(OCC(F)(F)F)nc3)C(C)C)c2)cn2nc(N)nc12 (mixture of isomers) [Example I-88, 2-Amino-N-[(2S)-butan-2-yl]-6-(1-{2-methyl-1-[6-(2,2,2-trifluoroethoxy)pyridin-3-yl]propyl}-1H-pyrazol-4-yl)[1,2,4]triazolo[1,5-a]pyridine-8-carboxamide]	7.5	120
CCC(c1ccc(C(F)(F)F)nc1)n1cc(-c2cc(C(=O)N[C@@H](C)CC)n3nc(N)nc3c2)cn1 (mixture of isomers) [Example I-101, 2-Amino-N-[(2S)-butan-2-yl]-7-(1-{1-[6-(trifluoromethyl)pyridin-3-yl]propyl}-1H-pyrazol-4-yl)[1,2,4]triazolo[1,5-a]pyridine-5-carboxamide]	1.2	2.8
CCC(c1ccc(N2CCOCC2)cc1)n1cc(-c2cc(C(=O)N[C@@H](C)CC)c3nc(N)nn3c2)cn1 (single isomer, unassigned) [Example I-49]	1.5	17
CC[C@H](C)NC(=O)c1cc(-c2cnn([C@H](c3ccc(C(F)F)nc3)C(C)C)c2)cc2nc(N)nn12 (single isomer, unassigned) [Example I-97]	0.9	2.1
CCC(c1ccc(OCC(F)(F)F)nc1)n1cc(-c2cc(C(=O)N[C@H]3CCOC3)n3nc(N)nc3c2)cn1 (mixture of isomers) [Example I-186]	6.2	16
Nc1nc2c(C(=O)NC3CCC3)cc(-c3cnn(Cc4ccc(F)cc4)c3)cn2n1 [Example I-132, 2-Amino-N-cyclobutyl-6-{1-[(4-fluorophenyl)methyl]-1H-pyrazol-4-yl}[1,2,4]triazolo[1,5-a]pyridine-8-carboxamide]	85	240
CC[C@@H](c1ccc(F)cc1)n1cc(-c2cc(C(=O)NC(C)CF)n3nc(N)nc3c2)cn1 (mixture of isomers) [Example I-148, 2-Amino-7-{1-[(1S)-1-(4-fluorophenyl)propyl]-1H-pyrazol-4-yl}-N-(1-fluoropropan-2-yl)[1,2,4]triazolo[1,5-a]pyridine-5-carboxamide]	1.6	32
CC[C@H](C)NC(=O)c1cc(-c2cnn(C(c3ccc(C(F)F)nc3)C(C)C)c2)cc2nc(N)nn12 (mixture of isomers) [Example I-95, 2-Amino-N-[(2S)-butan-2-yl]-7-(1-{1-[6-(difluoromethyl)pyridin-3-yl]-2-methylpropyl}-1H-pyrazol-4-yl)[1,2,4]triazolo[1,5-a]pyridine-5-carboxamide]	1.5	4.7
CCC(c1ccc(OC(F)(F)F)nc1)n1cc(-c2cc(C(=O)N[C@@H](C)CO)c3nc(N)nn3c2)cn1 (single isomer, unassigned) [Example I-159]	6.7	30
CC[C@H](C)NC(=O)c1cc(-c2cnn([C@@H](CC)c3cncc(Cl)c3)c2)cn2nc(N)nc12 (single isomer, unassigned) [Example I-60]	3.7	8.9
CCC(c1ccc(C(F)(F)F)nc1)n1cc(-c2cc(C(=O)N[C@H]3CCOC3)n3nc(N)nc3c2)cn1 (mixture of isomers) [Example I-177, 2-Amino-N-[(3S)-tetrahydrofuran-3-yl]-7-(1-{1-[6-(trifluoromethyl)pyridin-3-yl]propyl}-1H-pyrazol-4-yl)[1,2,4]triazolo[1,5-a]pyridine-5-carboxamide]	2.6	18
CC[C@H](C)NC(=O)c1cc(-c2cnn(Cc3cccc4cn[nH]c34)c2)cc2nc(N)nn12 (single isomer, unassigned) [Example I-50]	1.6	25
CC[C@H](C)NC(=O)c1cc(-c2cnn(C(c3ccc(OCC(F)(F)F)nc3)C(C)C)c2)cc2nc(N)nn12 (single isomer, unassigned) [Example I-118]	8.6	29
CC[C@H](C)NC(=O)c1cc(-c2cnn(C3CCN(Cc4ccccc4)CC3)c2)cn2nc(N)nc12 (single isomer, unassigned) [Example I-10]	24	9
CC(CF)NC(=O)c1cc(-c2cnn(C3CCOc4ccccc43)c2)cn2nc(N)nc12 (single isomer, unassigned) [Example I-146, 2-Amino-6-[1-(3,4-dihydro-2H-chromen-4-yl)-1H-pyrazol-4-yl]-N-(1-fluoropropan-2-yl)[1,2,4]triazolo[1,5-a]pyridine-8-carboxamide]	130	85
CC[C@H](C)NC(=O)c1cc(-c2cnn(C(c3ccc(OCC(F)(F)F)nc3)C3CC3)c2)cc2nc(N)nn12 (mixture of isomers) [Example I-119, 2-Amino-N-[(2S)-butan-2-yl]-7-(1-{cyclopropyl[6-(2,2,2-trifluoroethoxy)pyridin-3-yl]methyl}-1H-pyrazol-4-yl)[1,2,4]triazolo[1,5-a]pyridine-5-carboxamide]	6.5	36
CC[C@@H](c1ccc(C(F)(F)F)nc1)n1cc(-c2cc(C(=O)NC(C)(C)CO)c3nc(N)nn3c2)cn1 (single isomer, unassigned) [Example I-164, 2-Amino-N-(1-hydroxy-2-methylpropan-2-yl)-6-(1-{1-[6-(trifluoromethyl)pyridin-3-yl]propyl}-1H-pyrazol-4-yl)[1,2,4]triazolo[1,5-a]pyridine-8-carboxamide]	6.3	52
CC[C@H](C)NC(=O)c1cc(-c2cnn(C(c3ccc(C(F)(F)F)nc3)C(C)C)c2)cc2nc(N)nn12 (mixture of isomers) [Example I-104, 2-Amino-N-[(2S)-butan-2-yl]-7-(1-{2-methyl-1-[6-(trifluoromethyl)pyridin-3-yl]propyl}-1H-pyrazol-4-yl)[1,2,4]triazolo[1,5-a]pyridine-5-carboxamide]	1.3	2.9
CC[C@H](C)NC(=O)c1cc(-c2cnn(C(c3ccc(OCC(F)(F)F)nc3)C(C)C)c2)cn2nc(N)nc12 (single isomer, unassigned) [Example I-89]	230	2000
CC(CF)NC(=O)c1cc(-c2cnn(C(c3ccccc3)C(C)C)c2)cn2nc(N)nc12 (single isomer, unassigned) [Example I-141, 2-Amino-N-(1-fluoropropan-2-yl)-6-[1-(2-methyl-1-phenylpropyl)-1H-pyrazol-4-yl][1,2,4]triazolo[1,5-a]pyridine-8-carboxamide]	26	355
CC[C@H](C)NC(=O)c1cc(-c2cnn(C(c3ccc(C(F)(F)F)nc3)C3CCOCC3)c2)cc2nc(N)nn12 (single isomer, unassigned) [Example I-111]	0.5	1.4
CC(CF)NC(=O)c1cc(-c2cnn(CC3CC3)c2)cn2nc(N)nc12 (racemic) [Example I-137, 2-Amino-6-[1-(cyclopropylmethyl)-1H-pyrazol-4-yl]-N-[1-fluoropropan-2-yl][1,2,4]triazolo[1,5-a]pyridine-8-carboxamide]	140	150
CCC(c1ccc(C(F)(F)F)nc1)n1cc(-c2cc(C(=O)N[C@@H](C)CO)c3nc(N)nn3c2)cn1 (single isomer, unassigned) [Example I-153, 2-Amino-N-[(25)-1-hydroxypropan-2-yl]-6-(1-{1-[6-(trifluoromethyl)pyridin-3-yl]propyl}-1H-pyrazol-4-yl)[1,2,4]triazolo[1,5-a]pyridine-8-carboxamide]	6.2	29
CC[C@H](C)NC(=O)c1cc(-c2cnn(C3CCOc4ccccc43)c2)cc2nc(N)nn12 (single isomer, unassigned) [Example I-18]	47	6
Nc1nc2c(C(=O)N[C@H]3CCOC3)cc(-c3cnn(Cc4cccc5cn[nH]c45)c3)cn2n1 (single isomer, unassigned) [Example I-175]	3.8	150
CC(C)C(c1ccc(F)cc1)n1cc(-c2cc(C(=O)N[C@@H](C)CO)c3nc(N)nn3c2)cn1 (single isomer, unassigned) [Example I-161]	51	540
CCC(c1ccc(C(F)(F)F)nc1)n1cc(-c2cc(C(=O)NC(C)CF)c3nc(N)nn3c2)cn1 (mixture of isomers) [Example I-147]	3.9	25
CC(CF)NC(=O)c1cc(-c2cnn(C3CCOc4ccccc43)c2)cn2nc(N)nc12 (single isomer, unassigned) [Example I-145, 2-Amino-6-[1-(3,4-dihydro-2H-chromen-4-yl)-1H-pyrazol-4-yl]-N-(1-fluoropropan-2-yl)[1,2,4]triazolo[1,5-a]pyridine-8-carboxamide]	110	110

Source: patent US20230086702A1, “SUBSTITUTED 2-AMINO-PYRAZOLYL-[1,2,4]TRIAZOLO[1,5A]PYRIDINE DERIVATIVES AND USE THEREOF” (The Johns Hopkins University, priority 2019, published 2023)
